Measurements from publication PMC8162438, “Cancer cell-selective modulation of mitochondrial respiration and metabolism by potent organogold(III) dithiocarbamates” (Chemical Science, 2020).

Test system: MDA-MB-231
Experiment: Intracellular ROS analysis with DCF-DA (FACS)
Format: cell-based
Settings: for Increase in ROS versus DMSO: 1 hour, DCF-DA
Excerpt: We examined the status of intracellular ROS induced by 2a. For this experiment, we employed the used 2′,7′-dichlorofluoresceindiacetate (DCF-DA),[103] a fluorogenic dye with an excitation/emission wavelength of 495/525 nm. DCF-DA enters into the cell and is subsequently deacetylated by cellular esterases where it is then oxidized by ROS to produce a fluorescent compound that can detected with flow cytometry (FACS) using the FITC channel.[104]
To quantify the amount of ROS produced, we subjected MDA-MB-231 cells to 2a at 10 and 20 μM to assess concentration dependence. Within 1 hour of treatment, we observed a 1.3× increase in ROS in cells treated with 2aversus DMSO (Fig. 11). At twice the concentration, 20 μM, we observed a 1.5× increase in ROS. […] When compared to the H2O2 control, 2a produces similar ROS levels in MDA-MB-231 cells (Fig. 11). […] To further solidify that the DCF-DA fluorescence is from ROS and not other reactive species such as RNS, we pre-treated cells with 10 mM N-acetyl cysteine for 2 h. NAC is a natural ROS scavenger and a key component in the formation of glutathione (GSH), which is a powerful antioxidant.[105,106] After pre-treatment, the cells were subjected to the same concentration of 2a (10 μM) for 1 h.
100 µL of dye into 900 µL of DMEM. Note: the working solution of JC-1 should always be prepared fresh and not stored for long-term use. Then, 100 µL/mL of DMEM were added to the cells and incubated at 37 °C for 20 minutes. Prior to imaging, the media was removed and replaced with room temperature PBS (2 mL). The cells were then visualized using confocal microscopy on a Nikon A1R Inverted Confocal Microscope. […]
For the wells that were pre-treated with NAC, a stock solution of NAC in DMEM was added at a concentration of 10 mM for 2 h prior to the addition of 2a. […] The cells were then analyzed using FACS with the FITC channel […]
Mitochondrial Metabolism Analysis with Seahorse XF96 Analysis. […] The optimum conditions were determined to be 30,000 cells/well and an FCCP injection concentration of 0.6 µM. […]

C[N+](C)=C1[S][Au-2]2([S]1)[c]1ccccc1Cc1cccc[n+]12.F[P-](F)(F)(F)(F)F (stereo not drawn) [2a]
Increase in ROS versus DMSO (MDA-MB-231, 10 μM): 1.3 ×
Increase in ROS versus DMSO (MDA-MB-231, 20 μM): 1.5 ×
ROS levels after NAC pre-treatment (MDA-MB-231, 10 mM NAC 2 h, then 10 μM for 1 h): no increase in ROS levels
